Measurements reported in patent US12151028B2, “Drug delivery systems comprising solid solutions of weakly basic drugs” (Adare Pharmaceuticals, Inc., priority 2006, dated 2024).
In brackets after ≈: the same amount, converted by molar mass. Structures can show the parent of a compound that is named as a salt. Where two headings read alike, the source gives them in different places.

Columns and labels:
[1] = Turbidity measurements (transmittance of drug/polymer solutions in pH 6.0 buffer); format: physicochemical; conditions: buffer pH 6.0 containing Kollidon VA 64, Methocel E5, PEG 6000, cyclodextrin or Kollidon 14 PF; drug:polymer 1:2
Method: A concentrated solution (3 mL) of lercanidipine hydrochloride in acetone (0.5 mg/ml) was added to 200 mL of a buffer solution (pH 6.0) containing Kollidon VA 64, Methocel E5 (hypromellose), polyethylene glycol (PEG 6000), cyclodextrin or Kollidon 14 PF (polyvinyl pyrrolidone) at the ratio of 1:2 by weight with respect to the polymer.

[2] = Intrinsic dissolution rate measurements; format: physicochemical; conditions: crystalline polymorphs (Polymorph I, Polymorph II)
Method: Intrinsic dissolution rates were determined for two different polymorphs of lercanidipine hydrochloride as well as amorphous materials (e.g., amorphous drug and 1:2 solid solutions of lercanidipine hydrochloride with Methocel E5 and Kollidon VA 64).

[3] = physchem

Question: With `COC(=O)C1=C(C)NC(C)=C(C(=O)OC(C)(C)CN(C)CCC(c2ccccc2)c2ccccc2)C1c1cccc([N+](=O)[O-])c1` (centres unmarked) [lercanidipine hydrochloride] as the molecule, how does the “Stability of drug solution against crystallization (turbidity)” value [1] read?
Answer: Its value is “improved stability”.

Question: What about the “Intrinsic dissolution rate and extent of dissolution” value [2] of the same molecule?
Answer: Its value is “poor dissolution rates”.

Question: With `Cc1nccn1CC1CCc2c(c3ccccc3n2C)C1=O` (centres unmarked) [Ondansetron Hydrochloride, ondansetron hydrochloride] as the molecule, how does the “Solubility of Ondansetron Hydrochloride in Fumaric Acid” value (shortened to “Solubility … in Fumaric Acid”) (fumaric acid 0.25 mg/mL, start pH 2.79, end pH 2.75) read?
Answer: Its value is 26200 µg/mL.

Question: What about the “Solubility … in Fumaric Acid” value (pH 2.13) of the same molecule?
Answer: The value was 26900 µg/mL.

Question: And the “Solubility … in Fumaric Acid” value (pH 3.49)?
Answer: The value was “about 26 mg/mL”.

Question: With `O=C1CN=C(c2ccccc2Cl)c2cc([N+](=O)[O-])ccc2N1` [Clonazepam, clonazepam] as the molecule, how does the solubility ([3]; pH 2.84, aqueous buffer) read?
Answer: The solubility was 29 µg/mL (≈ 91.9 µM).

Question: And the solubility ([3]; pH 2.92, aqueous buffer)?
Answer: The solubility was 23 µg/mL (≈ 72.9 µM).

Question: What about the solubility ([3]; pH 3, aqueous buffer) of the same molecule?
Answer: The solubility was 22 µg/mL (≈ 69.7 µM).

Question: What about the solubility ([3]; pH 3.32, aqueous buffer) of the same molecule?
Answer: The solubility was 21 µg/mL (≈ 66.5 µM).

Question: What about the solubility ([3]; pH 4.21, aqueous buffer) of the same molecule?
Answer: The solubility was 18 µg/mL (≈ 57 µM).

Question: And the solubility ([3]; pH 6.39, aqueous buffer)?
Answer: The solubility was 18 µg/mL (≈ 57 µM).
